{
  "source": "patent US20110244060A1",
  "about": "“CARDIOPROTECTIVE EFFECTS OF NUTRACEUTICALS ISOLATED FROM NIGELLA SATIVA SEEDS” (UNIVERSITI PUTRA MALAYSIA, priority 2008, published 2011)",
  "key": {"[1]": {"assay": "Toxicity parameters (ALT, GGT, urea, creatinine) of plasma from experimental rats", "conditions": "rat, in vivo", "protocol": "In the present invention, the in vivo (rabbit study) antioxidant activity of NSP and NSO were measured using Selectra E manufacture Vital scientific machine (UK) and with commercial kits (Randox, Crumlin, Co. Antrim, UK). The present invention provides a method of the antioxidant activity of TQRF and TQ on .OH scavenging activity using ESR in experimental rats. The present invention provided clear understanding of the molecular mechanism by which TQRF and TQ exert their lowering cholesterol property. The regulatory effect of TQRF and TQ on genes involved in cholesterol metabolism such as LDLR, HMG-COAR, Apo A-1, Apo B100 and Apo E were investigated in vitro using HepG2 cells and in vivo using Sprague-Dawley rats. The present invention also provides evidence on the safety of selective doses of TQRF, TQ, NSO and NSP by measuring the toxicity parameters including Alanine aminotransferase (ALT), Gamma-glutamyltranspeptidase (GGT), urea and creatinine of plasma collected from experimental rats and rabbits.\nToxicity parameter including, ALT of plasma samples collected from experimental rats at baseline, middle of the treatment and the end f the treatment s were measured using analytical kit by kinetic UV assay using Roche Selectra E machine."}, "Apo B100 mRNA [2]": {"test_system": "Apo B100 mRNA", "assay": "Apo B100 mRNA expression in HepG2 cells, real-time PCR", "format": "cell-based, human", "conditions": "HepG2 cells (in vitro), compared to the control", "protocol": "(§1) For the determination of mRNA expression levels of LDLR, HMG-COAR, beta actin, Apo A-1, Apo E and Apo B100 by real time PCR, HepG2 cells were plated in 6-well plates at a density of 1.8×10^5 cells/well for 24 h. The cells were incubated with 10% HLPDS for 24 h with or without adding 2 μg/ml 25OH for another 24 h. The cells were treated with TQRF at two different doses, 80 and 50 μg/ml for 24 h, and with TQ at dose of 2 μg/ml Total RNA was isolated from HepG2 cells and rats liver tissues using RiboPure RNA Isolation Kit according to the manufacturer's instructions. […] Real-time quantitative PCR was performed using the Quantict Probe Real time PCR master mix according to the manufacturer's instructions. TaqMan Primers and probes specific for LDLR and HMG-COA genes were designed using the sequence entries from GenBank (Table. 1) Database and synthesis by Integrated DNA Technologies (IDT). Human beta-actin mRNA was used as housekeeping gene, TaqMan Primers and probes specific for human beta-actin gene was synthesis by Sigma Aldrich. The probes were labeled with FAM 3′ end and the fluorophores 6FAM at 5′ end. The real-time quantitative PCR reaction for each sample was carried out in triplicate and each experiment was repeated twice. […] Analysis of gene expression data was carried out by ΔΔCT method of relative quantification, according to Kenneth, et al, (2001) (32). […]"}, "Apo A-1 mRNA [3]": {"test_system": "Apo A-1 mRNA", "assay": "Apo A-1 mRNA expression in HepG2 cells, real-time PCR", "format": "cell-based, human", "conditions": "HepG2 cells (in vitro), compared to the control", "protocol": "as §1"}, "LDLR mRNA [4]": {"test_system": "LDLR mRNA", "assay": "LDLR mRNA expression in HepG2 cells, quantitative real-time PCR", "format": "cell-based, human", "conditions": "TQ 2 μg/ml, compared to control cells"}, "hydroxyl radical": {"test_system": "hydroxyl radical", "assay": "Hydroxyl radical scavenging activity of rat plasma by ESR", "format": "in vivo", "conditions": "plasma of rats after 8 weeks of treatment, different doses"}, "Apo E mRNA [5]": {"test_system": "Apo E mRNA", "assay": "Apo E mRNA expression in HepG2 cells, real-time PCR", "format": "cell-based, human", "conditions": "HepG2 cells (in vitro), compared to the control", "protocol": "as §1"}, "HMG-COAR mRNA [6]": {"test_system": "HMG-COAR mRNA", "assay": "HMG-COAR mRNA expression in rat liver, real-time PCR", "conditions": "rat liver (in vivo), compared to the control", "protocol": "At the end of the experiment, all the rats were dissected and liver tissues for RNA isolation were removed, snap frozen with liquid nitrogen within approximately 2 min of death, and stored at −80° C. for gene expression study. Total RNA was isolated from HepG2 cells and rats liver tissues using RiboPure RNA Isolation Kit according to the manufacturer's instructions. […] Real-time quantitative PCR was performed using the Quantict Probe Real time PCR master mix according to the manufacturer's instructions. TaqMan Primers and probes specific for LDLR and HMG-COA genes were designed using the sequence entries from GenBank (Table. 1) Database and synthesis by Integrated DNA Technologies (IDT). Human beta-actin mRNA was used as housekeeping gene, TaqMan Primers and probes specific for human beta-actin gene was synthesis by Sigma Aldrich. The probes were labeled with FAM 3′ end and the fluorophores 6FAM at 5′ end. The real-time quantitative PCR reaction for each sample was carried out in triplicate and each experiment was repeated twice. […] Analysis of gene expression data was carried out by ΔΔCT method of relative quantification, according to Kenneth, et al, (2001) (32). […]"}, "LDLR mRNA [7]": {"test_system": "LDLR mRNA", "assay": "LDLR mRNA expression in liver of experimental rats, quantitative real-time PCR", "format": "in vivo", "conditions": "rat liver, compared with untreated rats"}, "Apo E mRNA [8]": {"test_system": "Apo E mRNA", "assay": "Apo E mRNA expression in rat liver, real-time PCR", "conditions": "rat liver (in vivo), compared to the control"}, "Apo A-1 mRNA [9]": {"test_system": "Apo A-1 mRNA", "assay": "Apo A-1 mRNA expression in rat liver, real-time PCR", "conditions": "rat liver (in vivo), compared to the control"}, "[10]": {"test_system": "Sprague-Dawley rats fed with diets supplemented with 1% cholesterol", "assay": "Hypocholesterolemic effect of TQRF and TQ in rats fed 1% cholesterol diet (plasma TC, LDLC)", "format": "in vivo, rat", "conditions": "for TC levels in experimental rats: 1% cholesterol diet"}, "Apo B100 mRNA [11]": {"test_system": "Apo B100 mRNA", "assay": "Apo B100 mRNA expression in rat liver, real-time PCR", "conditions": "rat liver (in vivo), compared to the control"}, "HMG-COAR mRNA [12]": {"test_system": "HMG-COAR mRNA", "assay": "HMG-COAR mRNA expression in HepG2 cells, real-time PCR", "format": "cell-based, human", "conditions": "HepG2 cells (in vitro), compared to the control", "protocol": "as §1"}},
  "note": "Marks after values point to notes of the source that are not given here.",
  "data": [
    {"smiles": "CC1=CC(=O)C(C(C)C)=CC1=O", "note": "[TQ, Thymoquinone]", "values": [
      {"measurement": "toxicity (hepatic and kidney enzyme stability, organ integrity)", "setting": "[1]", "value": "non toxic"},
      {"measurement": "Apo B100 mRNA expression", "setting": "Apo B100 mRNA [2]", "value": "down-regulated"},
      {"measurement": "Apo A-I mRNA expression", "setting": "Apo A-1 mRNA [3]", "value": "up-regulated"},
      {"measurement": "increase of LDLR mRNA expression level", "setting": "LDLR mRNA [4]", "value": "two"},
      {"measurement": "hydroxyl radical scavenging activity of plasma (ESR)", "setting": "hydroxyl radical", "value": "able to directly scavenge .OH"},
      {"measurement": "Apo E mRNA expression", "setting": "Apo E mRNA [5]", "value": "up-regulated"},
      {"measurement": "HMG-COAR mRNA expression", "setting": "HMG-COAR mRNA [6]", "value": "down-regulated"},
      {"measurement": "increase of LDLR mRNA level", "setting": "LDLR mRNA [7]; TQ 20 mg/kg body weight", "value": "two"},
      {"measurement": "increase of LDLR mRNA level", "setting": "LDLR mRNA [7]; TQ 100 mg/kg body weight", "value": "seven"},
      {"measurement": "Apo E mRNA expression", "setting": "Apo E mRNA [8]", "value": "up-regulated"},
      {"measurement": "Apo A-I mRNA expression", "setting": "Apo A-1 mRNA [9]", "value": "up-regulated"},
      {"measurement": "TC levels in experimental rats", "setting": "[10]; TQ 1 group (20 mg/kg oral emulsion), after 4 weeks", "value": "1.49 ± 0.24 ^b mmol/l"},
      {"measurement": "TC levels in experimental rats", "setting": "[10]; TQ 1 group (20 mg/kg oral emulsion), after 8 weeks", "value": "1.48 ± 0.22 ^a, c mmol/l"},
      {"measurement": "TC levels in experimental rats", "setting": "[10]; TQ 1 group (20 mg/kg oral emulsion), baseline", "value": "0.85 ± 0.19", "unit": "mmol/L"},
      {"measurement": "TC levels in experimental rats", "setting": "[10]; TQ 2 group (50 mg/kg oral emulsion), after 4 weeks", "value": "1.47 ± 0.31 ^b mmol/l"},
      {"measurement": "TC levels in experimental rats", "setting": "[10]; TQ 2 group (50 mg/kg oral emulsion), after 8 weeks", "value": "1.01 ± 0.34 ^a mmol/l"},
      {"measurement": "TC levels in experimental rats", "setting": "[10]; TQ 2 group (50 mg/kg oral emulsion), baseline", "value": "0.97 ± 0.05", "unit": "mmol/L"},
      {"measurement": "TC levels in experimental rats", "setting": "[10]; TQ 3 group (dose 20 mg/kg, oral emulsion), after 4 weeks", "value": "1.41 ± 0.48 ^b mmol/l"},
      {"measurement": "TC levels in experimental rats", "setting": "[10]; TQ 3 group (dose 20 mg/kg, oral emulsion), after 8 weeks", "value": "0.94 ± 0.30 ^a mmol/l"},
      {"measurement": "TC levels in experimental rats", "setting": "[10]; TQ 3 group (dose 20 mg/kg, oral emulsion), baseline", "value": "0.87 ± 0.26", "unit": "mmol/L"},
      {"measurement": "plasma low density lipoprotein cholesterol (LDLC)", "setting": "[10]; rats, different doses for 8 weeks, compared to controlled group", "value": "significant decrease"},
      {"measurement": "Apo B100 mRNA expression", "setting": "Apo B100 mRNA [11]", "value": "down-regulated"},
      {"measurement": "HMG-COAR mRNA expression", "setting": "HMG-COAR mRNA [12]", "value": "down-regulated"}
    ]}
  ]
}
